Measured values taken from paper PMC5834492, “Antimycobacterial drug discovery using Mycobacteria-infected amoebae identifies anti-infectives and new molecular targets” (Scientific Reports, 2018).

How the values were obtained:
Mtb H37Rv in THP-1 = tested on: Mtb H37Rv in THP-1; design: method as in Sorrentino et al, 2015; settings: ref Sorrentino et al, 2015, cited from earlier work; for Intracelullar MIC90 in THP-1: THP1 / Mtb H37Rv infection assay; for Extracellular MIC90/ Inracellular MIC90: ratio
Mtb H37Rv = tested on: Mtb H37Rv; design: method as in Sorrentino et al, 2015; settings: ref Sorrentino et al, 2015; cited from earlier work
M. marinum luxCDABE = format: cell-based, Mycobacterium marinum
[1] = tested on: M. marinum in BV2 microglial cells; format: cell-based, Mycobacterium marinum
[2] = tested on: M. marinum in A. castellanii; format: cell-based, Mycobacterium marinum

Fc1ccccc1-c1noc(N2CCN(Cc3ccc4c(c3)OCO4)CC2)n1 [GSK1434490A]
Growth inhibition / Cytotoxicity assays: BV2 cells (BV2 cells): False
Intracelullar MIC90 in THP-1 (Mtb H37Rv in THP-1): 5.55 µM
Extracellular MIC90/ Inracellular MIC90 (Mtb H37Rv in THP-1): 0.94
Extracellular MIC90 (Mtb H37Rv): 5.2 µM
Antibiotic assays: M. marinum luxCDABE (M. marinum luxCDABE): 0.68
Intracellular infection assays: BV2 / M. marinum [1]: 1.16
Growth inhibition / Cytotoxicity assays: D. discoideum GFP-ABD (D. discoideum GFP-ABD): 0.93
Intracellular infection assays: A. castellanii / M. marinum [2]: 1.24

CCc1ccc(C2CC(C(F)(F)F)n3ncc(C(=O)NCc4cccs4)c3N2)cc1 (stereo not shown) [GSK1589671A]
Growth inhibition / Cytotoxicity assays: BV2 cells (BV2 cells): False
Intracelullar MIC90 in THP-1 (Mtb H37Rv in THP-1): 0.21 µM
Extracellular MIC90/ Inracellular MIC90 (Mtb H37Rv in THP-1): 20.95
Extracellular MIC90 (Mtb H37Rv): 4.4 µM
Antibiotic assays: M. marinum luxCDABE (M. marinum luxCDABE): 0.16
Intracellular infection assays: BV2 / M. marinum [1]: 1.74
Growth inhibition / Cytotoxicity assays: D. discoideum GFP-ABD (D. discoideum GFP-ABD): 0.99
Intracellular infection assays: A. castellanii / M. marinum [2]: 1.63

O=C(C=Cc1ccccc1)N1CCN(Cc2ccc3c(c2)OCO3)CC1 [SB-516933]
Growth inhibition / Cytotoxicity assays: BV2 cells (BV2 cells): False
Intracelullar MIC90 in THP-1 (Mtb H37Rv in THP-1): 5.55 µM
Extracellular MIC90/ Inracellular MIC90 (Mtb H37Rv in THP-1): 0.67
Extracellular MIC90 (Mtb H37Rv): 3.7 µM
Antibiotic assays: M. marinum luxCDABE (M. marinum luxCDABE): 0.41
Intracellular infection assays: BV2 / M. marinum [1]: 1.10
Growth inhibition / Cytotoxicity assays: D. discoideum GFP-ABD (D. discoideum GFP-ABD): 0.97
Intracellular infection assays: A. castellanii / M. marinum [2]: 1.12

COc1ccc2nc(C)cc(OCC(=O)Nc3ccccc3OC)c2c1 [GSK358607A]
Growth inhibition / Cytotoxicity assays: BV2 cells (BV2 cells): False
Intracelullar MIC90 in THP-1 (Mtb H37Rv in THP-1): 1.85 µM
Extracellular MIC90/ Inracellular MIC90 (Mtb H37Rv in THP-1): 0.22
Extracellular MIC90 (Mtb H37Rv): 0.4 µM
Antibiotic assays: M. marinum luxCDABE (M. marinum luxCDABE): 0.00
Intracellular infection assays: BV2 / M. marinum [1]: 0.98
Growth inhibition / Cytotoxicity assays: D. discoideum GFP-ABD (D. discoideum GFP-ABD): 0.39
Intracellular infection assays: A. castellanii / M. marinum [2]: 0.55

O=C(Nc1nc(-c2ccccn2)cs1)c1cncn1-c1ccccc1 [GSK1691553A]
Growth inhibition / Cytotoxicity assays: BV2 cells (BV2 cells): False
Intracelullar MIC90 in THP-1 (Mtb H37Rv in THP-1): 50 µM
Extracellular MIC90/ Inracellular MIC90 (Mtb H37Rv in THP-1): 0.16
Extracellular MIC90 (Mtb H37Rv): 7.9 µM
Antibiotic assays: M. marinum luxCDABE (M. marinum luxCDABE): 0.07
Intracellular infection assays: BV2 / M. marinum [1]: 1.01
Growth inhibition / Cytotoxicity assays: D. discoideum GFP-ABD (D. discoideum GFP-ABD): 0.80
Intracellular infection assays: A. castellanii / M. marinum [2]: 1.03

COc1cc(Nc2ccccc2)ccc1NS(=O)(=O)c1c(C)noc1C [GSK270670A]
Growth inhibition / Cytotoxicity assays: BV2 cells (BV2 cells): False
Intracelullar MIC90 in THP-1 (Mtb H37Rv in THP-1): 50 µM
Extracellular MIC90/ Inracellular MIC90 (Mtb H37Rv in THP-1): 0.12
Extracellular MIC90 (Mtb H37Rv): 6.1 µM
Antibiotic assays: M. marinum luxCDABE (M. marinum luxCDABE): 1.00
Intracellular infection assays: BV2 / M. marinum [1]: 1.42
Growth inhibition / Cytotoxicity assays: D. discoideum GFP-ABD (D. discoideum GFP-ABD): 0.94
Intracellular infection assays: A. castellanii / M. marinum [2]: 1.11

Cc1cc(NCCc2ccccc2)nc(/N=C(\N)Nc2ccc(Cl)cc2)n1 [CCI7967]
Growth inhibition / Cytotoxicity assays: BV2 cells (BV2 cells): False
Intracelullar MIC90 in THP-1 (Mtb H37Rv in THP-1): 0.61 µM
Extracellular MIC90/ Inracellular MIC90 (Mtb H37Rv in THP-1): 3.93
Extracellular MIC90 (Mtb H37Rv): 2.4 µM
Antibiotic assays: M. marinum luxCDABE (M. marinum luxCDABE): 0.00
Intracellular infection assays: BV2 / M. marinum [1]: 1.01
Growth inhibition / Cytotoxicity assays: D. discoideum GFP-ABD (D. discoideum GFP-ABD): 0.89
Intracellular infection assays: A. castellanii / M. marinum [2]: 1.16

CCCCc1ccc(C(=O)Nc2nccc3ccccc23)nc1 [SB-746177]
Growth inhibition / Cytotoxicity assays: BV2 cells (BV2 cells): False
Intracelullar MIC90 in THP-1 (Mtb H37Rv in THP-1): 1.85 µM
Extracellular MIC90/ Inracellular MIC90 (Mtb H37Rv in THP-1): 4.97
Extracellular MIC90 (Mtb H37Rv): 9.2 µM
Antibiotic assays: M. marinum luxCDABE (M. marinum luxCDABE): 0.00
Intracellular infection assays: BV2 / M. marinum [1]: 1.27
Growth inhibition / Cytotoxicity assays: D. discoideum GFP-ABD (D. discoideum GFP-ABD): 0.92
Intracellular infection assays: A. castellanii / M. marinum [2]: 1.01

COc1ccc(CC(=O)Nc2c(-c3cccs3)nc3cc(C)ccn23)cc1 [GSK1857145A]
Growth inhibition / Cytotoxicity assays: BV2 cells (BV2 cells): False
Intracelullar MIC90 in THP-1 (Mtb H37Rv in THP-1): 5.55 µM
Extracellular MIC90/ Inracellular MIC90 (Mtb H37Rv in THP-1): 1.22
Extracellular MIC90 (Mtb H37Rv): 6.8 µM
Antibiotic assays: M. marinum luxCDABE (M. marinum luxCDABE): 1.00
Intracellular infection assays: BV2 / M. marinum [1]: 1.12
Growth inhibition / Cytotoxicity assays: D. discoideum GFP-ABD (D. discoideum GFP-ABD): 0.93
Intracellular infection assays: A. castellanii / M. marinum [2]: 1.19

CCc1nc2ccccc2n1CC(O)COc1cc(C)ccc1Cl (stereo not shown) [GSK889423A]
Growth inhibition / Cytotoxicity assays: BV2 cells (BV2 cells): False
Intracelullar MIC90 in THP-1 (Mtb H37Rv in THP-1): 5.55 µM
Extracellular MIC90/ Inracellular MIC90 (Mtb H37Rv in THP-1): 1.58
Extracellular MIC90 (Mtb H37Rv): 8.8 µM
Antibiotic assays: M. marinum luxCDABE (M. marinum luxCDABE): 0.00
Intracellular infection assays: BV2 / M. marinum [1]: 1.41
Growth inhibition / Cytotoxicity assays: D. discoideum GFP-ABD (D. discoideum GFP-ABD): 0.94
Intracellular infection assays: A. castellanii / M. marinum [2]: 1.18

Fc1ccc2nc(Nc3nc(-c4ccccn4)cs3)sc2c1 [GSK735816A]
Growth inhibition / Cytotoxicity assays: BV2 cells (BV2 cells): False
Intracelullar MIC90 in THP-1 (Mtb H37Rv in THP-1): 1.85 µM
Extracellular MIC90/ Inracellular MIC90 (Mtb H37Rv in THP-1): 1.24
Extracellular MIC90 (Mtb H37Rv): 2.3 µM
Antibiotic assays: M. marinum luxCDABE (M. marinum luxCDABE): 0.00
Intracellular infection assays: BV2 / M. marinum [1]: 1.37
Growth inhibition / Cytotoxicity assays: D. discoideum GFP-ABD (D. discoideum GFP-ABD): 0.37
Intracellular infection assays: A. castellanii / M. marinum [2]: 1.17

Cc1ccc(SCCNC(=O)c2c(-c3ccccc3)noc2C)cc1 [GSK1863309A]
Growth inhibition / Cytotoxicity assays: BV2 cells (BV2 cells): False
Intracelullar MIC90 in THP-1 (Mtb H37Rv in THP-1): 16.65 µM
Extracellular MIC90/ Inracellular MIC90 (Mtb H37Rv in THP-1): 0.47
Extracellular MIC90 (Mtb H37Rv): 7.8 µM
Antibiotic assays: M. marinum luxCDABE (M. marinum luxCDABE): 0.00
Intracellular infection assays: BV2 / M. marinum [1]: 1.12
Growth inhibition / Cytotoxicity assays: D. discoideum GFP-ABD (D. discoideum GFP-ABD): 0.97
Intracellular infection assays: A. castellanii / M. marinum [2]: 1.09

O=C(N[C@@H](Cc1ccccc1)C(=O)Nc1ccccc1N1CCOCC1)c1cccs1 [GSK1729177A]
Growth inhibition / Cytotoxicity assays: BV2 cells (BV2 cells): True
Intracelullar MIC90 in THP-1 (Mtb H37Rv in THP-1): 50 µM
Extracellular MIC90/ Inracellular MIC90 (Mtb H37Rv in THP-1): 0.13
Extracellular MIC90 (Mtb H37Rv): 6.6 µM
Antibiotic assays: M. marinum luxCDABE (M. marinum luxCDABE): 0.00
Intracellular infection assays: BV2 / M. marinum [1]: 1.02
Growth inhibition / Cytotoxicity assays: D. discoideum GFP-ABD (D. discoideum GFP-ABD): 1.04
Intracellular infection assays: A. castellanii / M. marinum [2]: 0.64

Cc1cccc(-c2nc(Nc3ccncn3)c3c(C)csc3n2)n1 [GSK163574A]
Growth inhibition / Cytotoxicity assays: BV2 cells (BV2 cells): False
Intracelullar MIC90 in THP-1 (Mtb H37Rv in THP-1): 50 µM
Extracellular MIC90/ Inracellular MIC90 (Mtb H37Rv in THP-1): 0.01
Extracellular MIC90 (Mtb H37Rv): 0.3 µM
Antibiotic assays: M. marinum luxCDABE (M. marinum luxCDABE): 0.00
Intracellular infection assays: BV2 / M. marinum [1]: 1.25
Growth inhibition / Cytotoxicity assays: D. discoideum GFP-ABD (D. discoideum GFP-ABD): 0.81
Intracellular infection assays: A. castellanii / M. marinum [2]: 1.13

O=C(c1[nH]nc2c1CCCC2)N1CCN(Cc2ccc3c(c2)OCO3)CC1 [SB-712970]
Growth inhibition / Cytotoxicity assays: BV2 cells (BV2 cells): False
Intracelullar MIC90 in THP-1 (Mtb H37Rv in THP-1): 5.55 µM
Extracellular MIC90/ Inracellular MIC90 (Mtb H37Rv in THP-1): 0.81
Extracellular MIC90 (Mtb H37Rv): 4.5 µM
Antibiotic assays: M. marinum luxCDABE (M. marinum luxCDABE): 0.00
Intracellular infection assays: BV2 / M. marinum [1]: 1.28
Growth inhibition / Cytotoxicity assays: D. discoideum GFP-ABD (D. discoideum GFP-ABD): 0.79
Intracellular infection assays: A. castellanii / M. marinum [2]: 1.13

COc1ccc2cc(C(=O)Nc3ccc(C4CCN(C)CC4)cc3)sc2c1 [GSK1635139A]
Growth inhibition / Cytotoxicity assays: BV2 cells (BV2 cells): False
Intracelullar MIC90 in THP-1 (Mtb H37Rv in THP-1): 50 µM
Extracellular MIC90/ Inracellular MIC90 (Mtb H37Rv in THP-1): 0.19
Extracellular MIC90 (Mtb H37Rv): 9.5 µM
Antibiotic assays: M. marinum luxCDABE (M. marinum luxCDABE): 1.00
Intracellular infection assays: BV2 / M. marinum [1]: 1.15
Growth inhibition / Cytotoxicity assays: D. discoideum GFP-ABD (D. discoideum GFP-ABD): 0.78
Intracellular infection assays: A. castellanii / M. marinum [2]: 1.28

O=C(CCSc1ccc(Cl)cc1)Nc1nc(-c2ccccn2)cs1 [GSK920703A]
Growth inhibition / Cytotoxicity assays: BV2 cells (BV2 cells): False
Intracelullar MIC90 in THP-1 (Mtb H37Rv in THP-1): 5.55 µM
Extracellular MIC90/ Inracellular MIC90 (Mtb H37Rv in THP-1): 1.51
Extracellular MIC90 (Mtb H37Rv): 8.4 µM
Antibiotic assays: M. marinum luxCDABE (M. marinum luxCDABE): 0.13
Intracellular infection assays: BV2 / M. marinum [1]: 1.24
Growth inhibition / Cytotoxicity assays: D. discoideum GFP-ABD (D. discoideum GFP-ABD): 0.48
Intracellular infection assays: A. castellanii / M. marinum [2]: 1.34
